Patent US20160011177A1, “SCREENING METHOD FOR THERAPEUTIC AGENTS FOR CHARCOT-MARIE-TOOTH DISEASE AND SELF-DIFFERENTIATION MOTOR NEURONS USED THEREFOR” (Samsung Life Public Welfare Foundation, priority 2013, published 2016)
Entries after “also recorded” stand apart in the source; their conditions may differ.

Key:
CMT1A transgenic mouse = conditions: cited from earlier work
CMT 2F-MN = assay: α-tubulin acetylation in motor neurons (immunostaining, Western blotting); format: cell-based, human; conditions: 5 μM tubastatin A, 12 hours, versus non-treated and normal control WA09_MN
Description: To use the neurons differentiated from CMT patient originated iPSCs as the CMT drug efficiency test model, the recovery of axonal transport according to the treatment of tubastatin A, the histon deacetylase 6 (HDAC6) inhibitor, was investigated. CM2 subtype has heterogeneity in CMT causing gene, but nevertheless it causes malfunction in axonal transport system in many patients (Gentil B J and Cooper L, Brain Res Bull 2012; 88: 444-453). Therefore, the axonal transport efficiency of CMT 2F-MN was investigated by measuring the level of α-tubulin acetylation which was reported previously to be associated with the interaction between the vehicle and the motor protein (Westermann S and Weber K. Nat Rev Mol Cell Biol 2003; 4: 938-947).
Particularly, the CMT-2F-MN or WA09_MN differentiated by the same manner as described in Example <3-1> was treated with 5 μM tubastatin A, followed by culture for 12 hours. Then, the cells were immunostained with α-tubulin and acetylated α-tubulin by the same manner as described in Example <2-3>. […]
The CMT-2F-MN or WA09_MN treated with 5 μM tubastatin A was suspended in RIPA lysis buffer (pH 8.0) containing 150 mM NaCl, 1.0% NP-40, 0.5% sodium deoxycholate, 0.1% sodium dodecylsulfate, and 50 mM Tris. […] The band density was analyzed by using UN-SCAN-IT gel software in order to (Silk Scientific, USA) measure the level of α-tubulin acetylation. […]

HSP27 S135F-MN = assay: Moving mitochondria in motor neuron axons, microfluidic culture; format: cell-based, human
Description: (§1) To use the neurons differentiated from CMT patient originated iPSCs as the CMT drug efficiency test model, moving mitochondria was investigated over the treatment of tubastatin A, the histon deacetylase 6 (HDAC6) inhibitor, through microfluidic culture, as shown in FIG. 13. And the axonal transport efficiency of motor neurons (CMT 2F-MN) was confirmed (FIG. 13).
(§2) Particularly, the CMT-2F-MN or WA09_MN obtained in Example <3-1> was separated as single cells by using accutase, which were then inoculated in microchannel plates (provided by Dr. Mok, Seoul National University, Korea; Park J W et al., Nat Protoc 2006; 1: 2128-2136) at the density of 1.0×10^5 cells/plate, followed by culture in neurobasal/B27 for 10 days. After axons were fully grown through micrometer-sized grooves and stretched to the opposite compartment, the processed motor neurons were transfected with mito-dsRED2 by using lipofectamine 2000 (Invitrogen, USA). Within 2 days from the transfection, 5˜10 μM tubastatin A was treated to the medium, followed by culture for 6 hours. Imaging of mitochondria was performed by using fluorescent microscope at the speed of 121 snaps/2 min. Moving velocity of the motor neuron was measured by using ImageJ and Kymograph.

WA09_hESC-MN = assay: as above; format: cell-based, human; conditions: 6 hours
Description: as §1, §2

HSP27 P182L-MN = assay: as above; format: cell-based, human
Description: as §1, §2

Pmp22 mRNA = conditions: transgenic mouse; cited from earlier work
myelinated nerve fibers = conditions: cited from earlier work
[1] = CMT 2F-MN with S135F mutation, tubastatin A treated versus non-treated
[2] = CMT 2F-MN with P182L mutation, tubastatin A treated versus non-treated

## O=C1O[C@H]([C@@H](O)CO)C(O)=C1O [Ascorbic acid]
CMT1A transgenic mouse
  phenotype of hereditary motor and sensory neuropathies: improved

## CN1CCc2c(c3ccccc3n2Cc2ccc(C(=O)NO)cc2)C1 [tubastatin A]
CMT 2F-MN
  level of α-tubulin acetylation: increased/recovered back to that of the normal control group; also recorded: significantly increased
HSP27 S135F-MN; [1]
  moving velocity of mitochondria, in words: significantly increased
  transport frequency of mitochondria, in words: significantly increased
HSP27 S135F-MN; HSP27 S135F-MN, 5 μM tubastatin A treated, 6 hours
  Moving velocity of mitochondria: 0.2498 ± 0.02357 μm/sec
WA09_hESC-MN; 5 μM tubastatin A treated
  Moving velocity of mitochondria: 0.2446 ± 0.03859 μm/sec
WA09_hESC-MN; 10 μM tubastatin A treated
  Migration of mitochondria (number of moving mitochondria by total number): 39.31 ± 3.831%
HSP27 P182L-MN; [2]
  moving velocity of mitochondria, in words: significantly increased
  transport frequency of mitochondria, in words: significantly increased
HSP27 P182L-MN; HSP27 P182L-MN, 5 μM tubastatin A treated, 6 hours
  Moving velocity of mitochondria: 0.2599 ± 0.05186 μm/sec
HSP27 P182L-MN; HSP27 P182L-MN, 10 μM tubastatin A treated, 6 hours
  Migration of mitochondria (number of moving mitochondria by total number): 44.61 ± 10.450%

## CN(C)c1ccc([C@H]2C[C@]3(C)[C@@H](CC[C@]3(O)CCCO)[C@@H]3CCC4=CC(=O)CCC4=C32)cc1 [onapristone]
Pmp22 mRNA
  over-expression of Pmp22 mRNA: suppressed
  phenotype of hereditary motor and sensory neuropathies: improved
  side effects: without side effects

B1: neurotrophin-3 (protein, UniProt P20783 139-257, looked up)
Neurotrophin-3: YAEHKSHRGEYSVCDSESLWVTDKSSAIDIRGHQVTVLGEIKTGNSPVKQYFYETRCKEARPVKNGCRGIDDKHWNSQCKTSQTYVRALTSENNKLVGWRWIRIDTSCVCALSRKIGRT
notes: neurotrophin reported to increase myelinated nerve fibers
Myelinated nerve fibers
  myelinated nerve fibers: increased
  sensor related symptoms: improved
